# Data as given in ChEMBL document CHEMBL5113452, “Synthesis and biological evaluation of hybrids from optically active ring-opened 3-N-butylphthalide derivatives and 4-fluro-edaravone as potential anti-acute ischemic stroke agents” (Bioorg Med Chem, 2022).
# Active and inactive are the calls of the source. The rule behind the calls is not given here.
# Legend:
# Rattus norvegicus [1] = assay: Neuroprotective activity against transient middle cerebral artery occlusion induced ischemia stroke Sprague-Dawley rat model assessed as increase in neuro-fucntional score at 4.48 mg/kg, iv and measured after 24 hrs in presence of Eda by longa's method; format: functional, organism-based
# [2] = Elimination rate constant in Sprague-Dawley rat plasma at 4.48 mg/kg, iv and measured upto 24 hrs by LC-MS/MS analysis; format: ADME, organism-based
# Rattus norvegicus [3] = assay: Neuroprotective activity against transient middle cerebral artery occlusion induced cerebral infraction Sprague-Dawley rat model assessed as decrease in brain edema at 4.48 mg/kg, iv and measured after 24 hrs in presence of EDA; format: functional, organism-based
# [4] = MRT in Sprague-Dawley rat plasma at 4.48 mg/kg, iv and measured upto 24 hrs by LC-MS/MS analysis; format: ADME, organism-based
# [5] = AUC (0-t) in Sprague-Dawley rat plasma at 4.48 mg/kg, iv and measured upto 24 hrs by LC-MS/MS analysis; format: ADME, organism-based; set-up: time < 24 hrs, dose 4.48 mg/kg, route iv
# [6] = Elimination rate constant in Sprague-Dawley rat plasma at 4.48 mg/kg, iv and measured upto 24 hrs in presence of 4-F-Eda by LC-MS/MS analysis; format: ADME, organism-based
# [7] = C0 in Sprague-Dawley rat plasma at 4.48 mg/kg, iv and measured upto 24 hrs by LC-MS/MS analysis; format: ADME, organism-based
# [8] = Clearance in Sprague-Dawley rat plasma at 4.48 mg/kg, iv and measured upto 24 hrs in presence of 4-F-Eda by LC-MS/MS analysis; format: ADME, organism-based
# [9] = AUMC (0-t) in Sprague-Dawley rat plasma at 4.48 mg/kg, iv and measured upto 24 hrs in presence of 4-F-Eda by LC-MS/MS analysis; format: ADME, organism-based; conditions: in vivo
# [10] = Toxicity in transient middle cerebral artery occlusion induced ischemia stroke Sprague-Dawley rat model assessed as change in body weight at 4.48 mg/kg, iv and measured after 24 hrs in presence of EDA; format: organism-based; conditions: in vivo
# [11] = Half life in Sprague-Dawley rat plasma at 4.48 mg/kg, iv and measured upto 24 hrs in presence of 4-F-Eda by LC-MS/MS analysis; format: ADME, organism-based
# [12] = AUC (0-infinity) in Sprague-Dawley rat plasma at 4.48 mg/kg, iv and measured upto 24 hrs by LC-MS/MS analysis; format: ADME, organism-based; set-up: time < 24 hrs, dose 4.48 mg/kg, route iv
# [13] = Half life in Sprague-Dawley rat plasma at 4.48 mg/kg, iv and measured upto 24 hrs by LC-MS/MS analysis; format: ADME, organism-based
# [14] = Cmax in Sprague-Dawley rat plasma at 4.48 mg/kg, iv and measured upto 24 hrs by LC-MS/MS analysis; format: ADME, organism-based; set-up: dose 4.48 mg/kg, time < 24 hrs, route iv
# [15] = AUC (0-infinity) in Sprague-Dawley rat plasma at 4.48 mg/kg, iv and measured upto 24 hrs in presence of 4-F-Eda by LC-MS/MS analysis; format: ADME, organism-based; set-up: dose 4.48 mg/kg, time < 24 hrs, route iv
# [16] = Volume of distribution at steady state in Sprague-Dawley rat plasma at 4.48 mg/kg, iv and measured upto 24 hrs in presence of 4-F-Eda by LC-MS/MS analysis; format: ADME, organism-based; conditions: read-out: Vdss
# [17] = AUC (0-t) in Sprague-Dawley rat plasma at 4.48 mg/kg, iv and measured upto 24 hrs in presence of 4-F-Eda by LC-MS/MS analysis; format: ADME, organism-based; set-up: time < 24 hrs, dose 4.48 mg/kg, route iv
# [18] = AUMC (0-t) in Sprague-Dawley rat plasma at 4.48 mg/kg, iv and measured upto 24 hrs by LC-MS/MS analysis; format: ADME, organism-based; conditions: in vivo
# [19] = C0 in Sprague-Dawley rat plasma at 4.48 mg/kg, iv and measured upto 24 hrs in presence of 4-F-Eda by LC-MS/MS analysis; format: ADME, organism-based
# [20] = Clearance in Sprague-Dawley rat plasma at 4.48 mg/kg, iv and measured upto 24 hrs by LC-MS/MS analysis; format: ADME, organism-based
# [21] = Cmax in Sprague-Dawley rat plasma at 4.48 mg/kg, iv and measured upto 24 hrs in presence of 4-F-Eda by LC-MS/MS analysis; format: ADME, organism-based; set-up: time < 24 hrs, dose 4.48 mg/kg, route iv
# [22] = MRT in Sprague-Dawley rat plasma at 4.48 mg/kg, iv and measured upto 24 hrs in presence of 4-F-Eda by LC-MS/MS analysis; format: ADME, organism-based
# [23] = AUMC (0-infinity) in Sprague-Dawley rat plasma at 4.48 mg/kg, iv and measured upto 24 hrs in presence of 4-F-Eda by LC-MS/MS analysis; format: ADME, organism-based; conditions: in vivo
# [24] = Volume of distribution at steady state in Sprague-Dawley rat plasma at 4.48 mg/kg, iv and measured upto 24 hrs by LC-MS/MS analysis; format: ADME, organism-based; conditions: read-out: Vdss
# [25] = AUMC (0-infinity) in Sprague-Dawley rat plasma at 4.48 mg/kg, iv and measured upto 24 hrs by LC-MS/MS analysis; format: ADME, organism-based; conditions: in vivo
# Rattus norvegicus [26] = assay: Neuroprotective activity against transient middle cerebral artery occlusion induced cerebral infraction Sprague-Dawley rat model assessed as decrease in cerebral infraction volume at 4.48 mg/kg, iv and measured after 24 hrs in presence of EDA by TTC staining based assay; format: functional; set-up: scale not given: the % may be the effect or the level left
# [27] = Toxicity in transient middle cerebral artery occlusion induced ischemia stroke Sprague-Dawley rat model assessed as change in body weight at 5.90 mg/kg, iv and measured after 24 hrs; format: organism-based; conditions: in vivo, 5.9 mg/kg
# Rattus norvegicus [28] = assay: Neuroprotective activity against transient middle cerebral artery occlusion induced cerebral infraction Sprague-Dawley rat model assessed as decrease in cerebral infraction volume at 5.9 mg/kg, iv and measured after 24 hrs by TTC staining based assay; format: functional; set-up: scale not given: the % may be the effect or the level left
# Rattus norvegicus [29] = assay: Neuroprotective activity against transient middle cerebral artery occlusion induced ischemia stroke Sprague-Dawley rat model assessed as increase in neuro-fucntional score at 5.9 mg/kg, iv and measured after 24 hrs by longa's method; format: functional, organism-based
# Rattus norvegicus [30] = assay: Neuroprotective activity against transient middle cerebral artery occlusion induced cerebral infraction Sprague-Dawley rat model assessed as decrease in cerebral infraction volume at 5.9 mg/kg, iv and measured after 24 hrs in presence of 4-F-Eda by TTC staining based assay; format: functional; set-up: scale not given: the % may be the effect or the level left
# Rattus norvegicus [31] = assay: Neuroprotective activity against transient middle cerebral artery occlusion induced cerebral infraction Sprague-Dawley rat model assessed as decrease in brain edema at 5.9 mg/kg, iv and measured after 24 hrs in presence of 4-F-Eda; format: functional, organism-based
# [32] = Toxicity in transient middle cerebral artery occlusion induced ischemia stroke Sprague-Dawley rat model assessed as change in body weight at 5.90 mg/kg, iv and measured after 24 hrs in presence of 4-F-Eda; format: organism-based; conditions: in vivo, 5.9 mg/kg
# Rattus norvegicus [33] = assay: Neuroprotective activity against transient middle cerebral artery occlusion induced ischemia stroke Sprague-Dawley rat model assessed as increase in neuro-fucntional score at 5.9 mg/kg, iv and measured after 24 hrs in presence of 4-F-Eda by longa's method; format: functional, organism-based
# [34] = Toxicity in transient middle cerebral artery occlusion induced ischemia stroke Sprague-Dawley rat model assessed as change in body weight at 10 mg/kg, iv and measured after 24 hrs; format: organism-based; conditions: in vivo
# Rattus norvegicus [35] = assay: Neuroprotective activity against transient middle cerebral artery occlusion induced cerebral infraction Sprague-Dawley rat model assessed as decrease in brain edema at 10 mg/kg, iv and measured after 24 hrs; format: functional
# Rattus norvegicus [36] = assay: Neuroprotective activity against transient middle cerebral artery occlusion induced cerebral infraction Sprague-Dawley rat model assessed as decrease in cerebral infraction volume at 10 mg/kg, iv and measured after 24 hrs by TTC staining based assay; format: functional; set-up: scale not given: the % may be the effect or the level left
# Rattus norvegicus [37] = assay: Neuroprotective activity against transient middle cerebral artery occlusion induced ischemia stroke Sprague-Dawley rat model assessed as increase in neuro-fucntional score at 10 mg/kg, iv and measured after 24 hrs by longa's method; format: functional, organism-based
# Rattus norvegicus [38] = assay: Neuroprotective activity against transient middle cerebral artery occlusion induced cerebral ischemia Sprague-Dawley rat model assessed as decrease in infract volume at 70 mg/kg, po and measured after 24 hrs by TTC staining based assay; format: functional; set-up: scale not given: the % may be the effect or the level left
# Rattus norvegicus [39] = assay: Neuroprotective activity against transient middle cerebral artery occlusion induced cerebral ischemia Sprague-Dawley rat model assessed as decrease in infract volume at 140 mg/kg, po and measured after 24 hrs by TTC staining based assay; format: functional; set-up: scale not given: the % may be the effect or the level left
compound,measurement,setting,value
CCCC[C@@H]1OC(=O)c2ccccc21 [(3S)-BUTYLPHTHALIDE],Activity,Rattus norvegicus [1],Active
same,k el at 24 h,[2],0.000202 s⁻¹
same,Activity,Rattus norvegicus [3],Active
same,MRT,[4],0.678 h
same,AUC(0-t) at 24 h,[5],1470 ng·h/mL
same,k el at 24 h,[6],4.06e-05 s⁻¹
same,C0 at 24 h,[7],5310 ng/mL
same,clearance,[8],26.3 mL/min/kg
same,AUMCt,[9],3819 hr.hr.ng/ml
same,Activity,[10],Non-Toxic
same,half-life,[11],5.05 h
same,AUC(0-inf),[12],1480 ng·h/mL
same,half-life,[13],0.97 h
same,Cmax,[14],3290 ng/mL
same,AUC(0-inf),[15],2870 ng·h/mL
same,Vd,[16],2.73 L/kg
same,AUC(0-t) at 24 h,[17],2840 ng·h/mL
same,AUMCt,[18],943 hr.hr.ng/ml
same,C0 at 24 h,[19],13000 ng/mL
same,clearance,[20],51.1 mL/min/kg
same,Cmax,[21],6920 ng/mL
same,MRT,[22],1.74 h
same,AUMC,[23],5006 hr.hr.ng/ml
same,Vd,[24],2.08 L/kg
same,AUMC,[25],998 hr.hr.ng/ml
same,Activity,Rattus norvegicus [26],57.7%
CCCC[C@H](OC(C)=O)c1ccccc1C(=O)O,Activity,[27],Non-Toxic
same,Activity,Rattus norvegicus [28],12.67%
same,Activity,Rattus norvegicus [29],Active
same,Activity,Rattus norvegicus [30],68.37%
same,Activity,Rattus norvegicus [31],Active
same,Activity,[32],Non-Toxic
same,Activity,Rattus norvegicus [33],Active
CCCC[C@@H](OC(C)=O)c1ccccc1C(=O)Oc1cc(C)nn1-c1ccc(F)cc1,Activity,[34],Non-Toxic
same,Activity,Rattus norvegicus [35],Active
same,Activity,Rattus norvegicus [36],67.56%
same,Activity,Rattus norvegicus [37],Active
CCCCC(OC(C)=O)c1ccccc1C(=O)Oc1cc(C)nn1-c1ccc(F)cc1 (racemic),Activity,[34],Non-Toxic
same,Activity,Rattus norvegicus [38],52.8%
same,Activity,Rattus norvegicus [36],66.89%
same,Activity,Rattus norvegicus [39],61.77%
same,Activity,Rattus norvegicus [37],Active
